Measurements as given in patent publication US7476753B2, “3-aryl-2-cyano-3-hydroxy-acrylic acid derivatives” (Ciba Specialty Chemicals Corporation, priority 2003, dated 2009).
Converted amounts (≈) assume the structure as drawn. Like-named read-outs stand apart in the source and are kept apart here.

What was measured:
[1] = test system: Actinomyces viscosus ATCC 43146; test: Automatic MIC-Screening, broth dilution method; assay type: cell-based; details: micro titer plates, 37° C., 24 hours, tested 120 to 3.75 μg/ml
Description: (§1) Determination of the Minimum Inhibitory Concentration (MIC Value)
(§2) 8 μl of each dilution step is mixed with 192 μl of nutrient medium in micro titer plates. The plates are incubated at 37° C. for 24 hours and then the highest dilution (lowest concentration) of the test substance at which growth is just no longer discernible is determined (corresponds to the MIC).

[2] = test system: Corynebacterium sp. (Corynebacterium xerosis ATCC 373 oder C. minutissimum ATCC 23348); test: Automatic MIC-Screening, broth dilution method; assay type: cell-based; details: micro titer plates, 37° C., 24 hours, tested 120 to 3.75 μg/ml
Description: as §1, §2

[3] = test system: Staphylococcus aureus ATCC 6538; test: Automatic MIC-Screening, broth dilution method; assay type: cell-based; details: micro titer plates, 37° C., 24 hours, tested 120 to 3.75 μg/ml
Description: as §1, §2

[4] = test system: A. actinomycetemcomitans ATCC43718; test: MIC vs. oral germs, broth dilution method; assay type: cell-based, Actinobacillus actinomycetemcomitans; details: Aggregatibacter actinomycetemcomitans, read-out: MHK (MIC) A. actinomycetemcomitans ATCC43718
From the text: (§3) b) Determination of MIC vs. different oral germs in the broth dilution method • Medium: Thioglycolate Bouillon with Hemin and Menadion Columbia Bouillon with Hemin and Menadion für P. gingivalis und P. nigrescens • diluent: the corresponding amount of the substances was pippeted directly • Examples of Test organisms: • Actinobacillus actinomycetemcomitans ATCC43718 • Streptococcus gordonii ATCC10558 • Streptococcus mutans ATCC33402 • Actinomyces viscosus ATCC43146 • Fusobacterium nucleatum subsp. polymorphum ATCC1095 • Porphyromonas gingivalis ATCC3277 • Prevotella nigrescens ATCC33563 • Incubation: 7-10 days at 37° C. under anaerobic conditions, resp. 24 h aerobically with 10% CO2 for Streptococci und A. actinomycetemcomitans • Test solution: Stock solutions in ethanol with 1500 ppm (w/w) are used from all test substances
(§4) Bacteria are taken from blood agar plates with cotton swabs and a suitable O.D. is adjusted in the corresponding medium (McFarland 0.5). This solution is used for F. nucleatum and P. nigrescens in undiluted state, for the other strains a dilution of 1:20 is used. To each 2 ml of active ingredient containing solution 0.1 ml of the bacteria culture is added and incubated as described above.

S. gordonii ATCC10558 = test: MIC vs. oral germs, broth dilution method; assay type: cell-based, Streptococcus gordonii; details: Streptococcus gordonii, read-out: MHK (MIC) S. gordonii ATCC10558
From the text: as §3, §4

S. mutans ATCC33402 = test: MIC vs. oral germs, broth dilution method; assay type: cell-based, Streptococcus mutans; details: Streptococcus mutans, read-out: MHK (MIC) S. mutans ATCC33402
From the text: as §3, §4

A. viscosus ATCC43146 = test: MIC vs. oral germs, broth dilution method; assay type: cell-based, Actinomyces viscosus; details: Actinomyces viscosus
From the text: as §3, §4

[5] = test system: F. nucleatum subsp. polymorphum ATCC10953; test: MIC vs. oral germs, broth dilution method; assay type: cell-based, Fusobacterium nucleatum subsp. polymorphum; details: Fusobacterium nucleatum
From the text: as §3, §4

P. gingivalis ATCC3277 = test: MIC vs. oral germs, broth dilution method; assay type: cell-based, Porphyromonas gingivalis; details: Porphyromonas gingivalis
From the text: as §3, §4

P. nigrescens ATCC33563 = test: MIC vs. oral germs, broth dilution method; assay type: cell-based, Prevotella nigrescens; details: Prevotella nigrescens
From the text: as §3, §4

[6] = test system: Aspergillus niger ATCC 6275; test: MIC, Agar incorporation test; assay type: cell-based; details: Aspergillus niger, ATCC6275
Description: (§5) 0.3 ml of each dilution step is mixed with 15 ml of nutrient medium while the latter is still liquid. After the nutrient medium has solidified, 10 μl of each of the following organism dilutions of the test strains in 0.85% NaCl solution are spotted onto the agar medium.
(§6) The plates are incubated during 24 hours at 37° C. and then the highest dilution (lowest concentration) of the test substance at which growth is just no longer discernible (corresponds to the MIC) is determined.

[7] = test system: C. minutissimum ATCC 23348; test: MIC, Agar incorporation test; assay type: cell-based; details: Corynebacterium minutissimum, ATCC23348, 24 hours at 37° C.
Description: as §5, §6

[8] = test system: Corynebacterium xerosis ATCC 373; test: MIC, Agar incorporation test; assay type: cell-based; details: Corynebacterium xerosis, ATCC373, 24 hours at 37° C.
Description: as §5, §6

[9] = test system: Escherischia coli ATCC 10536; test: MIC, Agar incorporation test; assay type: cell-based; details: 24 hours at 37° C.
Description: as §5, §6

[10] = test system: Klebsiella pneumoniae ATCC 4352; test: MIC, Agar incorporation test; assay type: cell-based; details: Klebsiella pneumoniae, ATCC4352, 24 hours at 37° C.
Description: as §5, §6

[11] = test system: Propionibacterium acnes ATCC 6919; test: MIC, Agar incorporation test; assay type: cell-based; details: Cutibacterium acnes, ATCC6919, 24 hours at 37° C.
Description: as §5, §6

[12] = test system: Proteus vulgaris ATCC 6896; test: MIC, Agar incorporation test; assay type: cell-based; details: Proteus vulgaris, ATCC6896, 24 hours at 37° C.
Description: as §5, §6

[13] = test system: Pseudomonas aeruginosa ATCC 15442; test: MIC, Agar incorporation test; assay type: cell-based; details: Pseudomonas aeruginosa, ATCC15442, 24 hours at 37° C.
Description: as §5, §6

[14] = test system: Staphylococcus aureus ATCC 6538; test: MIC, Agar incorporation test; assay type: cell-based; details: Staphylococcus aureus, ATCC6538, 24 hours at 37° C.
Description: as §5, §6

[15] = test system: Staphylococcus epidermidis ATCC 12228; test: MIC, Agar incorporation test; assay type: cell-based; details: Staphylococcus epidermidis, ATCC12228, 24 hours at 37° C.
Description: as §5, §6

[16] = test system: Candida albicans ATCC 10231; test: MIC, Agar incorporation test; assay type: cell-based; details: Candida albicans, ATCC10231, 72 h, Sabouraud 4% glucose agar, 3 days at 28° C.
Description: 0.3 ml of each dilution step is mixed with 15 ml of nutrient medium while the latter is still liquid. After the nutrient medium has solidified, 10 μl of each of the following organism dilutions of the test strains in 0.85% NaCl solution are spotted onto the agar medium. […]

[17] = ATCC43146, read-out: MHK (MIC) A. viscosus ATCC43146
[18] = ATCC10953, read-out: MHK (MIC) F. nucleatum subsp. polymorphum ATCC10953
[19] = ATCC3277, read-out: MHK (MIC) P. gingivalis ATCC3277
[20] = ATCC33563, read-out: MHK (MIC) P. nigrescens ATCC33563

Row | Compound | MIK (MIC) A. viscosus [1] [μγ/ml] | MIK (MIC) Corynebacterium sp. [2] [μγ/ml] | MIK (MIC) S. aureus [3] [μγ/ml] | MIC ([4]; ATCC43718, 24 h) [µg/mL] | MIC (S. gordonii ATCC10558; ATCC10558, 24 h) [µg/mL] | MIC (S. mutans ATCC33402; ATCC33402, 24 h) [µg/mL] | MIC (A. viscosus ATCC43146; [17]) [µg/mL] | MIC [5, 18] [µg/mL] | MIC (P. gingivalis ATCC3277; [19]) [µg/mL] | MIC (P. nigrescens ATCC33563; [20]) [µg/mL] | MIC [6] [µg/mL] | MIC [7] [µg/mL] | MIC [8] [µg/mL] | MIC [9] [µg/mL] | MIC [10] [µg/mL] | MIC [11] [µg/mL] | MIC [13] [µg/mL] | MIC [14] [µg/mL] | MIC [15] [µg/mL] | MIC [16] [µg/mL] | further results
1 | CCCCOC(=O)/C(C#N)=C(\O)c1ccc(-c2ccccc2)cc1 [(101b), 3-biphenyl-4-yl-2-cyano-3-hydroxy-acrylic acid butylester] | 7.5 | 15 | 7.5 | 15 (≈ 46.7 µM) | 3.75 (≈ 11.7 µM) | 5.63 (≈ 17.5 µM) | 3.75 (≈ 11.7 µM) | ≤ 0.94 | 3.75 (≈ 11.7 µM) | > 15 | > 100 | 12.5 (≈ 38.9 µM) | 3.13 (≈ 9.74 µM) | > 100 | > 100 | 12.5 (≈ 38.9 µM) | > 100 | 6.25 (≈ 19.4 µM) | 6.25 (≈ 19.4 µM) | > 100 | MIC [12]: > 100 µg/mL
2 | CC(C)COC(=O)/C(C#N)=C(\O)c1ccc(-c2ccccc2)cc1 [(101c), 3-biphenyl-4-yl-2-cyano-3-hydroxy-acrylic acid isobutylester] | 7.5 | 7.5 | 7.5 | 15 (≈ 46.7 µM) | 3.75 (≈ 11.7 µM) | 5.63 (≈ 17.5 µM) | 7.5 (≈ 23.3 µM) | 7.5 (≈ 23.3 µM) | 7.5 (≈ 23.3 µM) | > 15 | > 50 | 12.5 (≈ 38.9 µM) | 3.13 (≈ 9.74 µM) | > 50 | > 50 | 12.5 (≈ 38.9 µM) | > 50 | 12.5 (≈ 38.9 µM) | 6.25 (≈ 19.4 µM) | > 50 | MIC [12]: > 50 µg/mL
3 | CCCCCCCCOC(=O)/C(C#N)=C(\O)c1ccc(-c2ccccc2)cc1 [(101d), 3-biphenyl-4-yl-2-cyano-3-hydroxy-acrylic acid octylester] | <3.75 | <3.75 | <3.75 | ≥ 15 | ≤ 0.94 | ≤ 0.94 | ≤ 0.94 | 15 (≈ 39.7 µM) | 7.5 (≈ 19.9 µM) | > 15 | > 400 | < 1.56 | < 1.56 | > 400 | > 400 | 6.25 (≈ 16.6 µM) | > 400 | < 1.56 | < 1.56 | > 400 | MIC [12]: > 400 µg/mL
4 | CCCCC(CC)COC(=O)C(C#N)=C(O)c1ccc(-c2ccccc2)cc1 (stereo not drawn) [(101e), 3-biphenyl-4-yl-2-cyano-3-hydroxy-acrylic acid 2-ethyl-hexylester] | – | – | – | > 15 | < 0.94 | < 0.94 | < 0.94 | > 15 | 15 (≈ 39.7 µM) | > 15 | – | – | 1.9 (≈ 5.03 µM) | > 500 | – | 0.94 (≈ 2.49 µM) | > 500 | 1.9 (≈ 5.03 µM) | 1.9 (≈ 5.03 µM) | > 500 | –
5 | CCCCCCCCOC(=O)/C(C#N)=C(\O)c1ccc(-c2ccc(/C(O)=C(\C#N)C(=O)OCCCCCCCC)cc2)cc1 [(102a)] | <3.75 | >120 | <3.75 | – | – | – | – | – | – | – | – | – | – | – | – | – | – | – | – | – | MIC ([4]; ATCC43718, broth dilution, 24 h aerobically with 10% CO2, 37° C.): > 15 µg/mL; MIC (S. gordonii ATCC10558; ATCC10558, broth dilution, 24 h aerobically with 10% CO2, 37° C.): 15 µg/mL (≈ 25 µM); MIC (S. mutans ATCC33402; ATCC33402, broth dilution, 24 h aerobically with 10% CO2, 37° C.): > 15 µg/mL; MIC (A. viscosus ATCC43146; ATCC43146, broth dilution, 7-10 days at 37° C., anaerobic, read-out: MHK (MIC) A. viscosus ATCC43146): 7.5 µg/mL (≈ 12.5 µM); MIC ([5]; ATCC10953, broth dilution, 7-10 days at 37° C., anaerobic, read-out: MHK (MIC) F. nucleatum subsp. polymorphum ATCC10953): ≥ 15 µg/mL; MIC (P. gingivalis ATCC3277; ATCC3277, broth dilution, Columbia Bouillon with Hemin and Menadion, 7-10 days at 37° C., anaerobic, read-out: MHK (MIC) P. gingivalis ATCC3277): > 15 µg/mL; MIC (P. nigrescens ATCC33563; ATCC33563, broth dilution, Columbia Bouillon with Hemin and Menadion, 7-10 days at 37° C., anaerobic, read-out: MHK (MIC) P. nigrescens ATCC33563): > 15 µg/mL
